From ChEMBL document CHEMBL1129240, “Synthesis of acyclo-C-nucleosides in the imidazo[1,2-a]pyridine and pyrimidine series as antiviral agents” (J Med Chem, 1996) come the findings set out here.

In brackets after ≈: the same amount, converted by molar mass. Bounds are passed on as bounds.

The term EC50 denotes the concentration that produces a half-maximal response.

One data set deals with Vero. Nature of the data set: (§1) Cytotoxic concentration required to cause microscopically detectable alteration of normal cell morphology of Vero cells. It counts as cell-based. The note with it: Chlorocebus sabaeus.
For a further data set, the system named is HeLa. Nature of the data set: (§2) Cytotoxic concentration required to cause microscopically detectable alteration of normal cell morphology of HeLa cells. The class given is cell-based. The note with it: Homo sapiens.
Data set [1] is described as follows: as §1. It counts as cell-based. The note with it: chlorocebus sabaeus, read-out: CC50.
A short description of data set [2]: as §2. The class given is cell-based. The following applies: human, read-out: CC50.
Data set [3] deals with Human alphaherpesvirus 3. Nature of the data set: Minimum Inhibitory Concentration (MIC) tested for activity against Varicella-Zoster Virus(VZV) using YS/R (TK-) strain. It counts as functional.
Data set [4] in a line: Cytotoxic concentration required to reduce CEM cell viability by 50%. It counts as cell-based. The following applies: human, CCRF-CEM (CEM) cells.
The nature of data set [5]: Cytotoxic concentration required to cause microscopically detectable alteration of normal cell morphology of E6SM cells. The class given is cell-based. The following applies: human, read-out: CC50.
Data set [6] has as its system Cytomegalovirus. Nature of the data set: Minimum Inhibitory Concentration (MIC) tested for activity against Cytomegalovirus (CMV) using Davis strain. It counts as functional. The note with it: Human betaherpesvirus 5.
The subject of data set [7] is Human alphaherpesvirus 3. Nature of the data set: Minimum Inhibitory Concentration (MIC) for activity against Varicella-Zoster Virus(VZV) using OKA (TK+) strain. The class given is functional.
In data set [8] the test system is Human alphaherpesvirus 3. Nature of the data set: Minimum Inhibition Concentration (MIC) for activity against Varicella-Zoster Virus(VZV) using YS(TK+) strain. The class given is functional.
Data set [9] can be described thus: Minimum cytotoxic concentration required to reduce human embryonic lung (HEL) cell proliferation by 50%. The note with it: human embryonic lung (HEL) cells, read-out: MCC. The class given is cell-based.
Data set [10] relates to Cytomegalovirus. Nature of the data set: Minimum Inhibitory Concentration (MIC) tested for activity against Cytomegalovirus (CMV) using AD169 strain. The class given is functional. The following applies: Human betaherpesvirus 5.
The subject of data set [11] is Human alphaherpesvirus 3. Nature of the data set: Minimum Inhibition Concentration (MIC) for activity against Varicella-Zoster Virus(VZV) using YS/R (TK-) strain. The class given is functional.
Data set [12] deals with Human alphaherpesvirus 3. Nature of the data set: Minimum Inhibition Concentration (MIC) for activity against Varicella-Zoster Virus(VZV) using YS(TK+) strain. The class given is functional.
Data set [13] deals with Cytomegalovirus. Nature of the data set: Minimum Inhibition Concentration (MIC) for activity against Cytomegalovirus (CMV) using AD169 strain. The class given is functional. The note with it: Human betaherpesvirus 5.
Data set [14] has as its system Cytomegalovirus. Nature of the data set: Minimum Inhibition Concentration (MIC) for activity against Cytomegalovirus (CMV) using Davis strain. The following applies: Human betaherpesvirus 5. The class given is functional.
The subject of data set [15] is Human alphaherpesvirus 3. Nature of the data set: Minimum Inhibition Concentration (MIC) for activity against Varicella-Zoster Virus (VZV) using YS/R (TK-) strain. It counts as functional.
The subject of data set [16] is Human alphaherpesvirus 3. Nature of the data set: Minimum Inhibition Concentration (MIC) for activity against Varicella-Zoster Virus (VZV) using YS (TK+) strain. The class given is functional.
Data set [17] has as its system Human alphaherpesvirus 3. Nature of the data set: Minimum Inhibition Concentration (MIC) for activity against Varicella-Zoster Virus(VZV) using OKA (TK+) strain. The class given is functional.
The nature of data set [18]: Minimum cytotoxic concentration to reduce the HEL cell proliferation by 50%. It counts as cell-based. The note with it: human, HEL cells; read-out: MCC.
For data set [19], the system named is Human alphaherpesvirus 3. Nature of the data set: Minimum Inhibition Concentration (MIC) for activity against Varicella-Zoster Virus(VZV) using 07/1 (TK-) strain. The class given is functional.
Data set [20] relates to Human alphaherpesvirus 3. Nature of the data set: Minimum Inhibition Concentration( MIC) for activity against Varicella-Zoster Virus(VZV) using YS/R (TK-) strain. The class given is functional.
Data set [21] relates to Human alphaherpesvirus 3. Nature of the data set: Minimum Inhibition Concentration (MIC) for activity against Varicella-Zoster Virus(VZV) using YS/R (TK-) strain. The class given is functional.
In data set [22] the test system is Cytomegalovirus. Nature of the data set: Minimum Inhibition Concentration( MIC) for activity against Cytomegalovirus (CMV) using AD169 strain. The class given is functional. The following applies: Human betaherpesvirus 5.
Data set [23] deals with Human alphaherpesvirus 3. Nature of the data set: Minimum Inhibition Concentration( MIC) for activity against Varicella-Zoster Virus(VZV) using YS(TK+) strain. It counts as functional.
Data set [24] relates to Human alphaherpesvirus 3. Nature of the data set: Minimum Inhibitory Concentration (MIC) tested for activity against Varicella-Zoster Virus(VZV) using YS(TK+) strain. It counts as functional.
The test system of data set [25] is Human alphaherpesvirus 3. Nature of the data set: Minimum Inhibition Concentration( MIC) for activity against Varicella-Zoster Virus(VZV) using 07/1 (TK-) strain. It counts as functional.

Take `CCCCOc1ccc(S(=O)(=O)[C@@](C)(Cc2ccc(OCCN3CCCCC3)cc2)C(=O)NO)cc1`: the EC50 in the data set with Vero and in the data set with HeLa was > 400 µg/mL throughout.

Take `COC(=O)c1nc2ccccn2c1CSCCO`: the results for the MCC in data set [1], in data set [2] and in data set [5] were > 400 µg/mL, > 200 µg/mL and > 400 µg/mL, respectively. For the same compound, the MIC was > 25 µg/mL in the data set with Human alphaherpesvirus 3 [3]; > 50 µg/mL in the data set with Cytomegalovirus [6]; > 25 µg/mL in the data set on Human alphaherpesvirus 3 [7]; > 25 µg/mL against Human alphaherpesvirus 3 [8]; > 50 µg/mL against Cytomegalovirus [10]. Also, the figures for the CC50 in [4] and in data set [9] were 87 µg/mL (≈ 327 µM) and > 100 µg/mL, respectively.

In the case of `OCCSCc1cnc2ccccn12`, the MCC amounted to 400 µg/mL in [1], 200 µg/mL in [2] and 400 µg/mL in data set [5]. Moreover, the values for the CC50 in data set [4] and in data set [9] were 29 µg/mL (≈ 139 µM) and > 100 µg/mL, respectively. The MIC came to 25 µg/mL (≈ 120 µM) in the data set with Human alphaherpesvirus 3 [11]; 35 µg/mL (≈ 168 µM) in the data set on Cytomegalovirus [6]; 25 µg/mL (≈ 120 µM) with Human alphaherpesvirus 3 [7]; 25 µg/mL (≈ 120 µM) against Human alphaherpesvirus 3 [12]; 40 µg/mL (≈ 192 µM) against Cytomegalovirus [10].

Regarding `Cc1ccn2c(CSCc3ccccc3)cnc2c1`, the MCC in [1] is 40 µg/mL; in [2], 40 µg/mL; in [5], 100 µg/mL. Moreover, the CC50 is 3.1 µg/mL (≈ 11.6 µM) in data set [4] and 45 µg/mL (≈ 168 µM) in [18]. In addition, the MIC was 3.5 µg/mL (≈ 13 µM) in the data set with Cytomegalovirus [13]; 3.5 µg/mL (≈ 13 µM) against Cytomegalovirus [14]; 10 µg/mL (≈ 37.3 µM) against Human alphaherpesvirus 3 [15]; 17 µg/mL (≈ 63.3 µM) against Human alphaherpesvirus 3 [16]; 15 µg/mL (≈ 55.9 µM) against Human alphaherpesvirus 3 [17].

For `Cc1c(Br)cn2c(CSCc3ccccc3)cnc2c1Br`, the MCC in data set [1], in data set [2] and in data set [5] was 40 µg/mL each time. In addition, the results for the CC50 in data set [4] and in data set [18] were 5 µg/mL (≈ 11.7 µM) and 30 µg/mL (≈ 70.4 µM), respectively. Also, the MIC against Cytomegalovirus [13] is > 1 µg/mL; against Cytomegalovirus [14], 2 µg/mL (≈ 4.69 µM); in the data set on Human alphaherpesvirus 3 [17], 2.7 µg/mL (≈ 6.34 µM); in the data set on Human alphaherpesvirus 3 [8], 1.8 µg/mL (≈ 4.22 µM); against Human alphaherpesvirus 3 [19] it was 2.3 µg/mL (≈ 5.4 µM); in the data set on Human alphaherpesvirus 3 [20], 2 µg/mL (≈ 4.69 µM).

On to `O=c1[nH]c(=O)n([C@H]2C[C@H](O)[C@@H](CO)O2)cc1/C=C/Br` [BRIVUDINE], for which the MCC in data set [1], in data set [2] and in data set [5] was > 400 µg/mL each time. The MIC is > 20 µg/mL in the data set on Human alphaherpesvirus 3 [21], 0.0009 µg/mL (≈ 0.0027 µM) against Human alphaherpesvirus 3 [17], 0.002 µg/mL (≈ 0.006 µM) in the data set with Human alphaherpesvirus 3 [8] and > 50 µg/mL in the data set on Human alphaherpesvirus 3 [19]. For the same compound, the CC50 in data set [18] was > 50 µg/mL.

For the compound `Cc1cccn2c(CSCc3ccccc3)cnc12`, the MIC in the data set with Cytomegalovirus [22] was 0.2 µg/mL (≈ 0.745 µM); against Human alphaherpesvirus 3 [23], 0.3 µg/mL (≈ 1.12 µM); in the data set with Cytomegalovirus [14], 0.2 µg/mL (≈ 0.745 µM); in the data set on Human alphaherpesvirus 3 [21], > 1 µg/mL; in the data set on Human alphaherpesvirus 3 [17], 0.9 µg/mL (≈ 3.35 µM); against Human alphaherpesvirus 3 [19], 0.4 µg/mL (≈ 1.49 µM). In addition, the MCC in [1] amounted to 100 µg/mL; in data set [2], 4 µg/mL; in [5], 40 µg/mL. Moreover, the CC50 in data set [4] stood at 0.5 µg/mL (≈ 1.86 µM); in data set [18], 8 µg/mL (≈ 29.8 µM).

For the compound `Cc1c(Br)c(C)n2c(CSCc3ccccc3)cnc2c1Br`, the MCC is > 40 µg/mL in data set [1], > 100 µg/mL in data set [2] and > 40 µg/mL in data set [5]. Besides, the results for the CC50 in data set [4] and in [18] were 35 µg/mL (≈ 79.5 µM) and > 100 µg/mL, respectively. Further, the MIC with Cytomegalovirus [6] was 4 µg/mL (≈ 9.09 µM); in the data set on Human alphaherpesvirus 3 [21] it was 40 µg/mL (≈ 90.9 µM); in the data set on Human alphaherpesvirus 3 [17], > 40 µg/mL; in the data set on Human alphaherpesvirus 3 [8] it was > 40 µg/mL; with Human alphaherpesvirus 3 [19], 40 µg/mL (≈ 90.9 µM); with Cytomegalovirus [10], 1.7 µg/mL (≈ 3.86 µM).

In the case of `CCSCc1cnc2cc(C)ccn12`, the MIC in the data set on Human alphaherpesvirus 3 [24] is > 10 µg/mL; with Cytomegalovirus [6], 10 µg/mL (≈ 48.5 µM); against Human alphaherpesvirus 3 [21], > 10 µg/mL; in the data set with Human alphaherpesvirus 3 [25] it was > 10 µg/mL; against Human alphaherpesvirus 3 [7], > 10 µg/mL; against Cytomegalovirus [10], > 10 µg/mL. The MCC in data set [1] worked out at 200 µg/mL; in data set [2], 100 µg/mL; in data set [5], 40 µg/mL. For the same compound, the CC50 in [4] turned out to be 11 µg/mL (≈ 53.3 µM); in data set [18], 35 µg/mL (≈ 170 µM).

Turning to `Cc1ccn2c(CSCC(C)O)cnc2c1` (centres undefined), the MCC is > 400 µg/mL in [1], 400 µg/mL in data set [2] and > 400 µg/mL in data set [5]. In addition, the MIC was 100 µg/mL (≈ 423 µM) against Human alphaherpesvirus 3 [3]; > 50 µg/mL in the data set with Cytomegalovirus [14]; > 100 µg/mL in the data set on Human alphaherpesvirus 3 [7]; > 100 µg/mL with Human alphaherpesvirus 3 [8]; > 50 µg/mL with Cytomegalovirus [10]. For the same compound, the CC50 in data set [4] was 60 µg/mL (≈ 254 µM); in data set [18], > 100 µg/mL.
